This is an account of results in patent US20200101014A1, “Stable Theranostic and Therapeutic Nanoemulsions Using Triphilic Semifluorinated Amphiphiles” (Wisconsin Alumni Research Foundation, priority 2017, published 2020).

Data set [1] concerns A549 non-small cell lung cancer cells. The following applies: read-out: Reported IC50 for the A549 cell line; cited from earlier work.
The conditions of data set [2]: cited from earlier work.
In a further data set the test system is Zebrafish (Danio rerio). In words: In vivo developmental toxicity study, embryo-larval zebrafish model. Further details: species or system Zebrafish (Danio rerio) of the AB strain. How it is done:
In Vivo Developmental Toxicity Study
Due to the novel nature of the M2F8H18 amphiphile, there is no preceding toxicity data. Though some predictions can be made from previous work in the Mecozzi lab, a thorough study of developmental effects related to M2F8H18 was performed using an embryo-larval zebrafish model. This animal model was selected because zebrafish eggs remain transparent from fertilization until the tissues become dense as a mature adult. Several developmental endpoints can be simultaneously monitored providing valuable developmental toxicity data for new chemicals. Following short-term exposure, survival, and hatching, non-lethal malformations were monitored including curved body axis and pericardia edemas. Mortality rate was also monitored.
Zebrafish (Danio rerio) of the AB strain were obtained from our collaborator, Dr. Michael Taylor at the University of Madison-Wisconsin School of Pharmacy, where the fish were cultured until sexual maturation for crossing. The fish were maintained in a light/dark cycle of 14:10 hat 28.5° C. in egg water (0.03% Instant Ocean, Blacksburg, Va., USA). Zebrafish were fed with live brine shrimps (Artemia nauplii) twice a day. Embryos were obtained from healthy adult fish with a ratio of 1:2 for female to male. Six breeding groups were placed in separate spawning aquariums, equipped with a mesh bottom to prevent the eggs from being cannibalized. Crossing was induced in the morning when the light was turned on. One hour later, eggs free of macroscopically discernable symptoms of infection and disease were collected, rinsed with egg water and transferred into Petri dishes until chemical exposure.
The embryo-larvae toxicity assay was carried out according to previous studies in the Taylor and Mecozzi laboratories. Briefly, 8 fertilized eggs of 2 hpf (hours post-fertilization) stages were placed into each well of a 24-well plate and each filled with 600 μL egg water. Six concentrations (1 mM, 333 μM, 111 μM, 37 μM, 12.3 μM, and 4.1 μM) plus two controls were plated. The plate was covered and incubated at 28.5° C. in a light/dark cycle of 14:10 throughout the 96 hpf exposure period. The observations of zebrafish development were made directly in the well using a stereomicroscope (Nikon SMZ18) every 24 hr. Endpoints including mortality, spontaneous movement, hatching success, pericardial edema, and curved body axis, were selected to monitor the effects of M2F8H18. Embryos and larvae were considered dead when no heartbeat was observed. The number of hatched embryos and a cumulative mortality tally was recorded every 24 hr from 2 hpf. The number of larvae displaying pericardial edemas or curved body axes were also recorded every 24 hr from 2 hpf. […]

In the case of `CC(=O)O[C@H]1C(=O)[C@@]2(C)[C@H]([C@H](OC(=O)c3ccccc3)[C@]3(O)C[C@H](OC(=O)[C@H](O)[C@@H](NC(=O)c4ccccc4)c4ccccc4)C(C)=C1C3(C)C)[C@]1(OC(C)=O)CO[C@@H]1C[C@@H]2O` [Paclitaxel, paclitaxel], the 50% inhibitory concentration (IC50) in data set [1] is 4 nM.

As to `FC(F)(F)C(F)(F)C(F)(F)C(F)(F)C(F)(F)C(F)(F)C(F)(F)C(F)(F)Br` [perfluorooctyl bromide], in data set [2], the “Solubility (in water)” value was 5 nM.

`O=C(O)C(F)(F)C(F)(F)C(F)(F)C(F)(F)C(F)(F)C(F)(F)C(F)(F)F` [PFOA, perfluorooctanoic acid]: the Malformations entry is “curved body axis and mild pericardia edemas” with Zebrafish (Danio rerio) (333 μM); “No other malformations were noted” in the data set on Zebrafish (Danio rerio) (lower PFOA concentrations (111 μM and lower)). For the same compound, the “Mortality (fish)” value with Zebrafish (Danio rerio) (333 μM, 96 hpf) is given as 67%. Also, the Mortality result in the data set with Zebrafish (Danio rerio) (1 mM, 96 hpf) is “mortality in all fish”.
